This is an account of results in patent US4002674A (priority 1974, dated 1977).

One may read the inhibition as the relative decrease from the control value, in per cent.

Assay [1] relates to Newcastle disease virus (NDV). The experiment in a line: microbe, parasite or virus in culture. Format: cell-based, Newcastle disease virus; chick embryo tissue culture. The note with it: for inhibition at 4 µg/mL / inhibition at 8 µg/mL / inhibition at 16 µg/mL: avian paramyxovirus 1, in Gallus gallus, 48 h, read-out: % Inhibition of NDV Multiplications.
A short description of assay [2]: antiviral activity in vivo. The note with it: no test details given.

Structures can show the parent of a compound that is named as a salt.

For `NC12CC3CC(CC(C3)C1)C2` [Amantadine . HCl, amantadine hydrochloride, reference compound], in assay [1], the inhibition at 4 µg/mL turned out to be 0%, the inhibition at 8 µg/mL amounted to 0% and the inhibition at 16 µg/mL came to 0%.

For the compound `COC(=O)C12CCCC3CC(CCC31)C2` (stereo not drawn) [VI, Methyl 4-homoisotwistane-3-carboxylate], in assay [1], the inhibition at 4 µg/mL is 0%, the inhibition at 8 µg/mL was determined as 91.2% and the inhibition at 16 µg/mL worked out at 99.4%. Besides, in assay [1] (in vitro, NDV, versus amantadine hydrochloride), the “antiviral activity compared with amantadine hydrochloride” value is recorded as “extremely superior”. Further, the “virus replication in the tissue culture” value in assay [1] (tissue culture containing above 4 μg/ml) is given as “almost completely inhibited”. For the same compound, the “antiviral activity in vivo” value in assay [2] is given as “potent antiviral activity in vivo”.
